ChEMBL document CHEMBL5532636 (Eur J Med Chem, 2023)
Values after ≈ are worked out from the molar mass of the structure shown.

Columns and labels:
[1] = test system: SARS-CoV-2; test: Inhibition of SARS-CoV-2 pseudovirus entry in human Huh-7 cells at 30 uM preincubated with cell culture for 1 hr followed by pseudovirus infection measured after 48 hrs by luciferase reporter gene assay relative to control; type: functional; details: Severe acute respiratory syndrome coronavirus 2, Huh-7, time 49 hrs
[2] = molecular target: Xanthine dehydrogenase/oxidase (Bos taurus, UniProt P80457); test: Inhibition of bovine milk xanthine oxidase using xanthine as substrate preincubated for 30 mins followed by substrate addition measured for 200 secs by spectrophotometry
[3] = Antioxidant activity assessed as DPPH radical scavenging activity at 50 uM measured after 2 mins by ESR spectroscopy relative to control; type: functional
[4] = test system: Severe acute respiratory syndrome coronavirus 2; test: Binding affinity to SARS-CoV-2 nsp12 assessed as change in melting temperature preincubated for 20 mins followed by heating by thermal shift assay
[5] = test system: Severe acute respiratory syndrome coronavirus 2; test: Binding affinity to SARS-CoV-2 nsp5 assessed as change in melting temperature preincubated for 20 mins followed by heating by thermal shift assay
[6] = Antioxidant activity assessed as DPPH radical scavenging activity at 25 uM measured after 2 mins by ESR spectroscopy relative to control; type: functional
[7] = molecular target: Replicase polyprotein 1ab (Severe acute respiratory syndrome coronavirus 2) (UniProt P0DTD1); test: Binding affinity to SARS-CoV-2 nsp14 assessed as change in melting temperature preincubated for 20 mins followed by heating by thermal shift assay
[8] = Cmax in Sprague-Dawley rat at 224 umol/kg, po measured for 2160 mins; type: ADME, organism-based; details: in vivo, 36 h, dose 224 µmol/kg
[9] = Antioxidant activity assessed as DPPH radical scavenging activity at 200 uM measured after 2 mins by ESR spectroscopy relative to control; type: functional
[10] = Inhibition of C-terminal GST-tagged full-length recombinant SARS-CoV 3CLpro expressed in Escherichia coli BL21(DE3) using MCA-AVLQSGFR-Lys(Dnp)-Lys-NH2 as substrate preincubated for 10 mins followed by substrate addition measured for 3.5 mins by FRET assay; design: species or system Severe acute respiratory syndrome-related coronavirus
[11] = Drug metabolism in Sprague-Dawley rat assessed as circulating drug conjugates by measuring AUC (0 to 360 min) at 37 umol/kg, iv; type: ADME; details: in vivo, 6 h, dose 37 µmol/kg
[12] = Cytotoxicity against African green monkey Vero cells; type: toxicity, cell-based; details: chlorocebus sabaeus
[13] = molecular target: T1, Xanthine dehydrogenase/oxidase (Homo sapiens, UniProt P47989); test: Inhibition of xanthine oxidase (unknown origin)
[14] = AUC (0 to 360 min) in Sprague-Dawley rat at 37 umol/kg, iv; type: ADME; details: in vivo, 6 h, dose 37 µmol/kg
[15] = molecular target: Replicase polyprotein 1ab (Severe acute respiratory syndrome coronavirus 2) (UniProt P0DTD1); test: Inhibition of SARS-CoV-2 3CLpro at 100 ug/ml preincubated for 30 mins followed by substrate addition measured after 4 hrs by fluorescence assay relative to control; details: dose 100.0 µg/ml, time 4.5 hrs
[16] = Aqueous solubility of compound; type: physicochemical; details: buffer
[17] = molecular target: Replicase polyprotein 1ab (Severe acute respiratory syndrome coronavirus 2) (UniProt P0DTD1); test: Inhibition of full-length SARS-CoV-2 PLpro expressed in Escherichia coli BL21(DE3) using RLRGG-AMC as substrate at 50 uM preincubated for 10 mins followed by substrate addition measured for 5 mins by FRET assay relative to control; details: time 15.0 min
[18] = test system: Bovine coronavirus; test: (§1) Antiviral activity against B-CoV infected in human HRT-18 cells assessed as inhibition in viral replication at 25 ug/ml preincubated with cell culture for 1 hr and further infected with virus for 1 hr followed by removal of virus particles and subsequent replacement of medium containing compound measured for 96 hrs post-infection by RT-PCR analysis relative to control; type: functional, HRT-18 cell line; details: Betacoronavirus 1, HRT-18, time 98 hrs
[19] = Cytotoxicity against human Calu-3 cells incubated for 4 days by MTS assay; type: toxicity, cell-based; details: time 4 day
[20] = Cytotoxicity against African green monkey Vero cells by CCK8 assay; type: toxicity, cell-based; details: chlorocebus sabaeus
[21] = AUC (0 to 360 min) in Sprague-Dawley rat at 224 umol/kg, po; type: ADME; details: in vivo, 6 h, dose 224 µmol/kg
[22] = Oral bioavailability in monkey; type: ADME, organism-based, Macaca mulatta; details: rhesus monkey, in vivo
[23] = Cytotoxicity against African green monkey Vero cells incubated for 4 days by MTS assay; type: toxicity, cell-based; details: chlorocebus sabaeus, time 4 day
[24] = test system: Human coronavirus OC43; test: as §1, with “HCoV-OC43” for “B-CoV”, “12.5” for “25”; type: functional, HRT-18 cell line; details: Betacoronavirus 1, HRT-18, time 97 hrs
[25] = test system: Influenza A virus; test: Antiviral activity against Influenza A virus H1N1 FM/1/47 infected in BALB/c mouse assessed as macrophage polarization in BALF at 80 mg/kg/day, po qd for 7 days by flow cytometry (reference value: 95 %); type: functional; details: time 7 day
[26] = Inhibition of SARS-CoV-2 nsp15 endonuclease activity using 5'-FAM-dArUdAdAdA-TAMRA-3' as substrate measure for 1 hr by fluorescence based assay; design: species or system Severe acute respiratory syndrome coronavirus 2
[27] = Oral bioavailability in rat; type: ADME, organism-based; details: in vivo
[28] = test system: SARS-CoV-2; test: Antiviral activity against SARS-CoV-2 TY/WK-521 infected in African green monkey Vero E6 cells assessed as reduction in viral replication preincubated with cell culture for 1 hr and further infected with virus for 2 hrs followed by compound washout and subsequent addition of medium containing compounds measured for 48 hrs post-infection by qRT-PCR analysis; type: functional, organism-based; details: Severe acute respiratory syndrome coronavirus 2, TY/WK-521, Vero C1008
[29] = Apparent permeability in human Caco-2 cells measured for 30 to 180 mins by HPLC analysis; type: ADME, cell-based; details: time 30-180 min
[30] = Solubility of compound in water; type: physicochemical
[31] = molecular target: T1, Xanthine dehydrogenase/oxidase; test: Inhibition of xanthine oxidase (unknown origin) using xanthine as substrate preincubated for 30 mins followed by substrate addition by spectrophotometry
[32] = Cytotoxicity against African green monkey Vero E6 cells assessed as reduction in cell viability incubated for 3 days by MTT assay; type: toxicity, cell-based, Vero C1008; details: chlorocebus sabaeus, time 3 day
[33] = molecular target: Angiotensin-converting enzyme (Homo sapiens, UniProt P12821); test: Inhibition of ACE (unknown origin) using Hippuryo-histidyl-leucine as substrate incubated for 40 mins by absorbance based assay
[34] = test system: SARS-CoV-2; test: Antiviral activity against SARS-CoV-2 NCCP 43326 infected in African green monkey Vero cells assessed as reduction in viral infection preincubated with cell culture for 30 mins and further infected with virus measured after 72 hrs by plaque reduction neutralization test method; type: functional, organism-based; details: Severe acute respiratory syndrome coronavirus 2, NCCP 43326, Vero
[35] = test system: Influenza A virus; test: Antiviral activity against Influenza A virus H1N1 FM/1/47 infected in BALB/c mouse assessed as decrease in recruitment of M1-polarized CD11b+ and F4/80+ macrophages in BALF at 80 mg/kg/day, po qd for 7 days by flow cytometry relative to control; type: functional; design: scale not given: the % may be the effect or the level left; details: time 7 day
[36] = molecular target: Angiotensin-converting enzyme 2 (Homo sapiens) (UniProt Q9BYF1); test: Inhibition of ACE2 in human SAEC cells at 25 uM incubated for 6 days by ELISA relative to control; type: cell-based; details: time 6.0 day
[37] = molecular target: Angiotensin-converting enzyme 2 (Homo sapiens) (UniProt Q9BYF1); test: Synergistic inhibition of ACE2 in human SAEC cells at 25 uM incubated for 6 days in presence of ascorbic acid by ELISA relative to control; type: cell-based; details: time 6.0 day
[38] = molecular target: T2, Renin (Homo sapiens, UniProt P00797); test: Inhibition of recombinant human renin using Arg-Glu(EDANS)-lle-His-Pro-Phe-His-Leu-Val-lle-His-Thr-Lys(dabcyl)-Arg as substrate incubated for 5 to 10 mins by fluorescence based assay
T2 sequence (P00797 whole entry): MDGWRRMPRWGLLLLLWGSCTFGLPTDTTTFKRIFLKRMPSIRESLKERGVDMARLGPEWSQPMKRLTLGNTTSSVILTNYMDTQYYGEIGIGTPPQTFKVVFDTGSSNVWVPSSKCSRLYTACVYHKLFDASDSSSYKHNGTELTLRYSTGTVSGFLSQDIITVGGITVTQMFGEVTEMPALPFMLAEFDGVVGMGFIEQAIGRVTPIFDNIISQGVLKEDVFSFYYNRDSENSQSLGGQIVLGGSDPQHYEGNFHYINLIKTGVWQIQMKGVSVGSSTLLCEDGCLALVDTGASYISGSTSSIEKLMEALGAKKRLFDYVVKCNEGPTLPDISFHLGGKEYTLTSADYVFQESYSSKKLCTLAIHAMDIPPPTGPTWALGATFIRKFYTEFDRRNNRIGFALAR

[39] = test system: SARS-CoV-2; test: Antiviral activity against SARS-CoV-2 infected in African green monkey Vero cells assessed as reduction in viral replication; type: functional, organism-based; details: Severe acute respiratory syndrome coronavirus 2, Vero
[40] = molecular target: Replicase polyprotein 1ab (Severe acute respiratory syndrome coronavirus 2, UniProt P0DTD1); test: Inhibition of SARS-CoV-2 PLpro using Ubiquitin-AMC as substrate by continuous kinetic assay

T1 sequence (P47989 whole entry): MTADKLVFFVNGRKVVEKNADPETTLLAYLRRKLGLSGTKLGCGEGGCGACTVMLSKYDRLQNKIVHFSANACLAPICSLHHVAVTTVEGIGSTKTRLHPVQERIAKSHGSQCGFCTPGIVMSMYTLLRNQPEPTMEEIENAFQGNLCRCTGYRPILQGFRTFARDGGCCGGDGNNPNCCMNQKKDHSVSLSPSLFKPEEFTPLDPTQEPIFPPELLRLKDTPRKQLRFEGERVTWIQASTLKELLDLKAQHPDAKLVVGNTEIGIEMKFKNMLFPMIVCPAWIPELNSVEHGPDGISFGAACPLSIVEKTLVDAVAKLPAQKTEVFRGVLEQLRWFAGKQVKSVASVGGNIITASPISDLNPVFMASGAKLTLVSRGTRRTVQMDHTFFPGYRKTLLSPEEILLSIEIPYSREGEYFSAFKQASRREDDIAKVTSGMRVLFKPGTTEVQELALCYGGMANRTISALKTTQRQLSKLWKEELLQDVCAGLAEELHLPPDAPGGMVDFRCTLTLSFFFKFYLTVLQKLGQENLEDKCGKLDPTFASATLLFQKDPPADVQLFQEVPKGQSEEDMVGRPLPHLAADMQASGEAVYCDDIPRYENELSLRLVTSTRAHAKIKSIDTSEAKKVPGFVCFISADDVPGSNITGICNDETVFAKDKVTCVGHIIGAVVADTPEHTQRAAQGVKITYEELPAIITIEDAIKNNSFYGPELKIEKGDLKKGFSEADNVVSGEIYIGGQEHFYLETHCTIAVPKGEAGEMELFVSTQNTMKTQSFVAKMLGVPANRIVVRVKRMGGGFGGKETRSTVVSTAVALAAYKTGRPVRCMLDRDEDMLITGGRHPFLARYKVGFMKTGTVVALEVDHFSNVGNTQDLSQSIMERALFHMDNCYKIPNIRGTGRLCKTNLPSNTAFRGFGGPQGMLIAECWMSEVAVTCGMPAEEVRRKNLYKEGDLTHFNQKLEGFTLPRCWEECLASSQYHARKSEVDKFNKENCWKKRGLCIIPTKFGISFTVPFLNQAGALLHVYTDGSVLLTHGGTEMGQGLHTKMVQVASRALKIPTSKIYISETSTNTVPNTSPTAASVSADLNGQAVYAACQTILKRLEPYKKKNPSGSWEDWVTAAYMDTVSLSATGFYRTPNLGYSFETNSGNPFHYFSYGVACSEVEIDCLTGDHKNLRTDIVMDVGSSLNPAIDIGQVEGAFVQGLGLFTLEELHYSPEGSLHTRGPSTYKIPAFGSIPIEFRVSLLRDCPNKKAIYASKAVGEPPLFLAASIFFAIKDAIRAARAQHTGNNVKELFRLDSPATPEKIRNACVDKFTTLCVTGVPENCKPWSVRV
Xanthine dehydrogenase/oxidase (Bos taurus, UniProt P80457), sequence (P80457 whole entry): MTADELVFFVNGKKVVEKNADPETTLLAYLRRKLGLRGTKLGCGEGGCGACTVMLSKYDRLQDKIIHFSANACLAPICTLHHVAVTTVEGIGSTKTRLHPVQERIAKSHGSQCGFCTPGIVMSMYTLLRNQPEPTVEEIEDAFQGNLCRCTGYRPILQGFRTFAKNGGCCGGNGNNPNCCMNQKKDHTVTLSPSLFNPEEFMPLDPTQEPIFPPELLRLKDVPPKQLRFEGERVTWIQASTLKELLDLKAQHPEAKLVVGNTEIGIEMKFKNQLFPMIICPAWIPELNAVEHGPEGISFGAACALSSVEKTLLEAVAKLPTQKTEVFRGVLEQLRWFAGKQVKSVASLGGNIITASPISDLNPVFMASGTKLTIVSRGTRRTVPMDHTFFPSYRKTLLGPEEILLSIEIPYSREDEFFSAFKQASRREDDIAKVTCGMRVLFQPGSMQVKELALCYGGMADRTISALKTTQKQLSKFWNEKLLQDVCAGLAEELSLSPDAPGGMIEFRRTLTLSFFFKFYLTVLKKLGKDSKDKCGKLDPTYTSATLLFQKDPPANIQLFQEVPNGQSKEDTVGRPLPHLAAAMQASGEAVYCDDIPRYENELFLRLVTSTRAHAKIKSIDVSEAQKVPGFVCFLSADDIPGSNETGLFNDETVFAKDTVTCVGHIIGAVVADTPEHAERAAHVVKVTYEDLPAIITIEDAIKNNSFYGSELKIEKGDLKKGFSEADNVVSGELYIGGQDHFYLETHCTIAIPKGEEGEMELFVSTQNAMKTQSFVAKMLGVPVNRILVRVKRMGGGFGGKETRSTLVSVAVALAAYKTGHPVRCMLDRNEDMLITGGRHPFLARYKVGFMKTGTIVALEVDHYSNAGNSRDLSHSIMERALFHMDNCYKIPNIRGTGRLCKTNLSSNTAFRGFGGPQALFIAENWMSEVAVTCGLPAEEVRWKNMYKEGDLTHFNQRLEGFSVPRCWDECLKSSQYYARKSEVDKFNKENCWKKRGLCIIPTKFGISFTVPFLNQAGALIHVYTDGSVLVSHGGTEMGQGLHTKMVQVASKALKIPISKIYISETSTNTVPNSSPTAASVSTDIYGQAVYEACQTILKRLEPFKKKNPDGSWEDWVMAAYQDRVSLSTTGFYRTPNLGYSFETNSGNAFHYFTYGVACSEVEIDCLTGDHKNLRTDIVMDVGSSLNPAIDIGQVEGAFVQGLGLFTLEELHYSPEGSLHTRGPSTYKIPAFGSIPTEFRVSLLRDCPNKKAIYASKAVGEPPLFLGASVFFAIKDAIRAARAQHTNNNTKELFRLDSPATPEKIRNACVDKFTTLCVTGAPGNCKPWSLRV
Angiotensin-converting enzyme 2 (Homo sapiens), sequence (Q9BYF1 18-805 limits assumed): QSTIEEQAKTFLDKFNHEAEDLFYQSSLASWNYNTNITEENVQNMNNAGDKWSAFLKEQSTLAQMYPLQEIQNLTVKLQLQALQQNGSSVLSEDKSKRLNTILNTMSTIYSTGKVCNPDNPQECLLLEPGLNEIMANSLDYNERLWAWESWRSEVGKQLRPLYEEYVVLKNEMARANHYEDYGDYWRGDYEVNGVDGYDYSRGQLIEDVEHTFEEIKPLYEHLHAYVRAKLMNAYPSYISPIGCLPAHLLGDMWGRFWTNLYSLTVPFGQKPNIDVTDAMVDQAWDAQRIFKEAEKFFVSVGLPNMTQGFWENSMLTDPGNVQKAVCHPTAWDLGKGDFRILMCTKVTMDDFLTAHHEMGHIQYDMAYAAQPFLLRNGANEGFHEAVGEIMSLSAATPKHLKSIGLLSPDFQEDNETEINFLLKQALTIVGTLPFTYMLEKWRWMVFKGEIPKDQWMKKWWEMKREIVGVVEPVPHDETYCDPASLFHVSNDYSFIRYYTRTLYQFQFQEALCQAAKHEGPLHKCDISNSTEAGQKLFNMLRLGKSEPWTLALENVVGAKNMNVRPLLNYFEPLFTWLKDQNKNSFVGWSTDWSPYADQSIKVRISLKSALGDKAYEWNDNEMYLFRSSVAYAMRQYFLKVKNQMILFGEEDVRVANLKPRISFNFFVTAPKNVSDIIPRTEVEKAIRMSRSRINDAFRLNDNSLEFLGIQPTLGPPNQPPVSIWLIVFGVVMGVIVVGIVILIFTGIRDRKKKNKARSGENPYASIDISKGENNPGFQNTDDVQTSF
Angiotensin-converting enzyme, sequence (P12821 whole entry): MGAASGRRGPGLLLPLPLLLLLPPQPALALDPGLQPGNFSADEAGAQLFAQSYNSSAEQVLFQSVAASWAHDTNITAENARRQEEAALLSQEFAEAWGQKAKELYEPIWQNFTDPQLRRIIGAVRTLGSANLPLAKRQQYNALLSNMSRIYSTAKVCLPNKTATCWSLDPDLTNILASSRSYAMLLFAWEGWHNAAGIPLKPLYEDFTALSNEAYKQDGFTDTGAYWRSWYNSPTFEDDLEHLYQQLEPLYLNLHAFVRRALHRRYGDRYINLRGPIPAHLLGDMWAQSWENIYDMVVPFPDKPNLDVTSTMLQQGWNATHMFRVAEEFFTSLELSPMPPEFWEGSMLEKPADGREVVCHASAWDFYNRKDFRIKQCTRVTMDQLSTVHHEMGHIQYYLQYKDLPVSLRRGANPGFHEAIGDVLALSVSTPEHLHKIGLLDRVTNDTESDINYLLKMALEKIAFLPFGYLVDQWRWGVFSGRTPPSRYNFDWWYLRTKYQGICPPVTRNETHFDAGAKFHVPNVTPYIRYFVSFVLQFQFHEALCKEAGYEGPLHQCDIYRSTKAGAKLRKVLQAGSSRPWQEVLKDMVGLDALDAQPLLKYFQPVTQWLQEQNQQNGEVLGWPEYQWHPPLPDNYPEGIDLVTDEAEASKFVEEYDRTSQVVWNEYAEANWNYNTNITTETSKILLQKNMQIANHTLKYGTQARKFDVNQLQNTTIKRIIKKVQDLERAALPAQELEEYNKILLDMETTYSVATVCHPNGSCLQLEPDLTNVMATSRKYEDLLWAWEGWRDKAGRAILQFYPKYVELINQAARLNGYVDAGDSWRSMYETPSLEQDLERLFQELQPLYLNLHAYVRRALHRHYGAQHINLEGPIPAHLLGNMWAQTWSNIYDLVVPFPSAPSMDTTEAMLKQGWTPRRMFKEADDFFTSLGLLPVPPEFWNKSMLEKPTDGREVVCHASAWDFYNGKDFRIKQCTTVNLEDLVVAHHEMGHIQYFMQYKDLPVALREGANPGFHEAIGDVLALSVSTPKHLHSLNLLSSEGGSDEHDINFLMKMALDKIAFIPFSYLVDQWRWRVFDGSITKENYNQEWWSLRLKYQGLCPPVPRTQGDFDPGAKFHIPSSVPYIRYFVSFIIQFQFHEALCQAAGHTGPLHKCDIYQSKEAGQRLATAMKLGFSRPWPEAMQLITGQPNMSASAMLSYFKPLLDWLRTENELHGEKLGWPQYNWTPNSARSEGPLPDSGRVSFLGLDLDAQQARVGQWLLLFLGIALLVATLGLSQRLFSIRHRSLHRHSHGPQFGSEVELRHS

Compound: O=c1cc(-c2ccccc2)oc2cc(O)c(O)c(O)c12 [BAICALEIN]
- inhibition at 30 µM [1]: 14.6%
- IC50 [2]: 7.54 µM
- Activity [3]: 55%
- ΔTm [4]: 3.9 °C
- ΔTm [5]: 0.9 °C
- Activity [6]: 69%
- ΔTm [7]: 1.5 °C
- Cmax [8]: 13.6 nM/ml
- Activity [9]: > 50%
- IC50 [10]: 1.18 µM
- AUC [11]: 927.2 nM.min/ml
- CC50 [12]: > 200 µM
- IC50 [13]: 3.12 µM
- AUC [14]: 297.6 nM.min/ml
- inhibition [15]: 94.7%
- solubility [16]: 16.8 µg/mL (≈ 62.2 µM)
- inhibition [17]: < 50%
- inhibition at 25 µg/mL [18]: 89.8%
- CC50 at 96 h [19]: 9.1 µM
- CC50 [20]: > 500 µM
- AUC [21]: 2980.5 nM.min/ml
- bioavailability [22]: 13.1%
- CC50 at 96 h [23]: 8.6 µM
- inhibition at 12.5 µg/mL [24]: 100%

Compound: O=C(O)[C@H]1O[C@@H](Oc2cc3oc(-c4ccccc4)cc(=O)c3c(O)c2O)[C@H](O)[C@@H](O)[C@@H]1O [BAICALIN]
- IC50 [2]: 123 µM
- Activity [3]: 17%
- Activity [25]: 97%
- IC50 [26]: 7.98 µM
- F [27]: 2.2%
- Activity [6]: 42%
- EC50 [28]: 8.8 µM
- Cmax [8]: 2.9 nM/ml
- Papp [29]: 0.037 ×10⁻⁶ cm/s
- solubility [30]: 67 µg/mL (≈ 150 µM)
- CC50 [12]: > 200 µM
- IC50 [31]: 55.6 µM
- IC50 [13]: 157 µM
- CC50 at 72 h [32]: > 1000 µM
- IC50 [33]: 2240 µM
- EC50 [34]: 83.3 µM
- Activity [35]: ~90%
- CC50 at 96 h [19]: > 100 µM
- AUC [21]: 1943.7 nM.min/ml
- inhibition [36]: 75%
- inhibition [37]: 82%
- IC50 [38]: 120 µM
- CC50 at 96 h [23]: > 100 µM
- EC50 [39]: 10.3 µM

Compound: CC(=O)Nc1ccc(C)c(C(=O)N[C@H](C)c2cccc3ccccc23)c1
- IC50 [40]: 1.73 µM
